From patent US6506784B1, “Use of 1,3-substituted pyrazol-5-yl sulfonates as pesticides” (3-Dimensional Pharmaceuticals, Inc., priority 1999, dated 2003)

target: Mouse Brain GABA Receptors; assay: In vitro assay of ability to bind mouse brain GABA receptors (3H-EBOB displacement, mouse brain membranes); details: inhibition of 3H-EBOB binding to mouse brain membranes; NI = non-inhibitor
Protocol: Mouse brains were obtained from carbon dioxide-asphyxiated Swiss-Webster mice, washed with phosphate-buffered saline, and used either fresh or after storage at −80° C. for up to 10 months. Unless specified, all preparation steps were performed at 0-4° C. For each preparation, 20 brains were suspended in about 40 mL of 0.32 M sucrose and homogenized for about 2 minutes, using a Tissumizer™ homogenizer equipped with a SDT-100EN probe (available from Tekmar-Dohrmann, Cincinnati, Ohio) running at 50% of its maximum speed. The extract was centrifuged for about 5 min at about 1000×g to pellet intact brain tissue. The supernatant was retained and the pellet washed with an additional 40 mL of 0.32 M sucrose and centrifuged at 1000×g for about 5 minutes. The 1000×g supernatants were combined and centrifuged at about 10,000×g for about 20 min to pellet membranes. The 10,000×g supernatant was discarded and the pellet was resuspended in about 20 mL of water containing 1 mM EDTA. The sample was dialyzed two times for about 3 hours each against about 3 L of water. The sample was then centrifuged at about 25,000×g for about 30 min to pellet the membranes. After centrifugation, the supernatant was discarded and the pellet recovered. The protein concentration of the pellet was determined by the Bio-Rad Protein Assay (available from Bio-Rad Laboratories, Hercules, Calif.) using bovine serum albumin as a standard. The membranes were aliquoted and stored at −80° C. for up to 6 months before use.
Mouse brain membranes were prepared as described above from dissected mouse brains. Test compounds were dissolved in dimethylsulfoxide (DMSO) at concentrations ranging from about 2 nM to about 100 mM. About 1 μL of a dissolved test compound was dispensed into a well of a 96-well polystyrene plate. About 100 μL of ice cold assay buffer (10 mM phosphate, 300 mM NaCl, pH 7.5) containing 5.2 nM 4′-Ethynyl-4-n-[2,3-^3H2]propylbicycloorthobenzoate (^3H-EBOB, 38 Ci/mmol, available from NEN Life Science Products, Boston, Mass.) was added to the well, followed by about 100 μL of ice cold assay buffer containing about 0.25-0.5 mg/ml mouse brain membranes. Control wells were prepared the same way except that the mouse brain membranes were omitted from the “negative” wells, and the test compounds were omitted from the “positive” wells. The samples were incubated for about 45 min at about 24° C. and then filtered on a 0.1% (w/v) polyethylenimine-soaked glass fiber Filtermat A (available from EG&G Wallac Inc., Gaithersburg, Md.) followed by four 100 mL rinses of cold assay buffer using a Harvester 96® cell harvester (available from Tomtec, Orange, Conn.). The filtermat was air dried and radioactivity bound to the filtermat was detected with either a 1450 MicroBeta® Trilux scintillation counter (available from EG&G Wallac Inc.) or a Topcount NXT™ scintillation counter (available from Packard Instrument Co., Meriden, Conn.) using standard methods.
Specific binding was considered to be the difference between total ^3H bound to the mouse brain membranes in the absence of any inhibitors and nonspecific ^3H bound to the mouse brain membranes upon the addition of 5 μM unlabeled EBOB. The average radioactivity contained in the “negative” wells was subtracted from each of the assay wells. […] This value was calculated by plotting the data on a log-linear plot and either dropping a line to the x-axis perpendicular to a line drawn to the y-axis at approximately 50% inhibition of ^3H-EBOB binding, or by fitting the data to the formula I=XY/(X+Z), in which I is the percent inhibition of ^3H-EBOB binding, X is the inhibitor concentration, Y is the maximum percent inhibition of ^3H-EBOB binding observed, and Z is the calculated IC50.

SMILES	IC50 [µM]
Cn1nc(C(F)(F)F)cc1OS(=O)(=O)c1ccc(Cl)c(Cl)c1 [compound 2]	9
Cn1nc(C(F)(F)F)cc1OS(=O)(=O)c1cc(Cl)c(Cl)cc1Cl [compound 1]	8.4
Cc1c(Cl)cccc1S(=O)(=O)Oc1cc(C(F)(F)F)nn1C [compound 16]	12
Cn1nc(C(F)(F)F)cc1OS(=O)(=O)c1ccc(C(F)(F)F)cc1Cl [compound 5, 1-methyl-3-(trifluoromethyl)pyrazol-5-yl 2-chloro-4-(trifluoromethyl)benzenesulfonate]	14
Cn1nc(C(F)(F)F)cc1OS(=O)(=O)c1ccc(Br)c(Br)c1 [compound 6]	12.5
Cn1nc(C(F)(F)F)cc1OS(=O)(=O)c1ccc(Cl)cc1Cl [compound 12, 1-methyl-3-(trifluoromethyl)pyrazol-5-yl 2,4-dichlorobenzenesulfonate]	4.9
Cn1nc(C(F)(F)F)cc1OS(=O)(=O)c1c(F)cccc1F [compound 9]	6
Cc1cc(S(=O)(=O)Oc2cc(C(F)(F)F)nn2C)ccc1Cl [compound 7]	11
Cc1cc(F)ccc1S(=O)(=O)Oc1cc(C(F)(F)F)nn1C [compound 11]	3.6
Cn1nc(C(C)(C)C)cc1OS(=O)(=O)c1ccc(Cl)cc1Cl [compound 17]	5.4
O=S(=O)(Oc1cc(C(F)(F)F)nn1-c1ccccc1)c1ccc(F)c(Cl)c1 [compound 14]	12

Now those with a lower IC50, led by results:

IC50 [µM]	SMILES
3.3	Cn1nc(C(F)(F)F)cc1OS(=O)(=O)c1ccc(F)cc1Cl [compound 20, 1-methyl-3-(trifluoromethyl)pyrazol-5-yl 2-chloro-4-fluorobenzenesulfonate]
2	Cn1nc(C(F)(F)F)cc1OS(=O)(=O)c1cc(Cl)ccc1Cl [compound 3]
1.3	Cn1nc(C(C)(C)C)cc1OS(=O)(=O)c1ccc(F)cc1Cl [compound 19]
0.16	Cn1nc(C(F)(F)F)cc1OS(=O)(=O)c1cccc(F)c1 [compound 8]
3	Cn1nc(C(F)(F)F)cc1OS(=O)(=O)c1ccc2ccccc2c1 [compound 13]
0.5	Cn1nc(C(F)(F)F)cc1OS(=O)(=O)c1cccc(Cl)c1 [compound 4]
1	Cc1nn(-c2ccccc2)c(OS(=O)(=O)c2ccc(F)cc2Cl)c1Cl [compound 18]
1	Cn1nc(C(F)(F)F)cc1OS(=O)(=O)c1ccc(F)c(F)c1 [compound 10]
